“And” between values parts separate entries of the source, which are not always exact repeats. Equal values may be shown once.
These molecules were tested on P. falciparum 3D7 growth, pLDH absorbance (assay: P. falciparum 3D7 growth inhibition, dose response, strain 3D7 (AID 2305)).
Molecule `COc1ccc(CNCc2cccc(-c3cccc(-c4nc5ccc(F)cc5[nH]4)c3)c2)cc1` has an IC50 of 0.3 µM. Work on `CS(=O)(=O)c1cccc(-c2ccc3oc(C(N)=O)c(NC(=O)c4cccs4)c3c2)c1` yielded an IC50 of 0.59 µM. Work on `CC(=O)Nc1cccc(/C=C/C(=O)N2CCC(N3CCCCC3)CC2)c1` yielded an IC50 of 1.05 µM. Work on `CCNC[C@@H](O)[C@H](Cc1ccccc1)NC(=O)c1cc2c3c(c1)c(CC)cn3CCS(=O)(=O)N2C` yielded an IC50 of 0.81 µM. Work on `Cn1nc(-c2ccc(NC(=O)Nc3cc(C(F)(F)F)cc(C(F)(F)F)c3)c(F)c2)c2cnc(NCCN3CCOCC3)nc21` yielded an IC50 of 0.8 µM. In the case of `COc1ccc2nccc(NN=Cc3cccc([N+](=O)[O-])c3)c2c1`, the IC50 is reported as 0.4 µM. Work on `O=C(Nc1cccc(F)c1)NC1CCN(c2ccnc3cc(Cl)ccc23)CC1` yielded an IC50 of 0.61 µM. `O=C(Nc1ccc2c(c1)CN(Cc1ccc(N3CCCC3)o1)CCC2)c1cncs1` showed an IC50 of 1.57 µM. `COc1ccc2nccc([C@@H](O)CN3CCC(NCc4cc5oc(=O)n(C)c5cc4F)CC3)c2c1` gave an IC50 of 0.66 µM. `CS(=O)(=O)CCNCc1ccc(-c2ccc3c(Nc4ccc(Cl)cc4F)ccnc3c2)o1` showed an IC50 of 0.67 µM. Work on `Cc1[nH]c(C)c(-c2ccc(CCc3ccc(F)cc3F)cc2)c(=O)c1Br` yielded an IC50 of 0.01 µM. With `CNCCNC(=O)C1Cc2c([nH]c3c(C)cccc23)C(c2ccc(Cl)c(Cl)c2)N1` (centres undefined) the IC50 was 0.72 µM. `CCOc1cc(C(=O)NCCc2ccc(Cl)c(Cl)c2)ccc1-c1nc2ccc(Cl)cc2[nH]1` showed an IC50 of 0.89 µM. In the case of `COc1ccc2c(=O)ccn(CCN3CCC(NCc4ccc5c(n4)NC(=O)CS5)CC3)c2c1`, the IC50 is reported as 0.23 µM. Molecule `Cc1cccc(C(=O)Nc2ccnc(N3CCC(N(C)Cc4cccc(O)c4)CC3)c2)c1` has an IC50 of 0.92 µM. For `CC1(C)N=C(N)NC(NOCc2ccc(Cl)c(Cl)c2)=N1`, the IC50 was 0.23 µM. With `Cn1cnc2c(SCc3ccccc3OCc3ccccc3)ncnc21` the IC50 was 0.92 µM. With `CC(C)C1CCc2nc(N)nc(N)c2C1` (centres undefined) the IC50 was 0.14 µM. `COc1c(C2CCN(CCCCNC(=O)c3ccc(-c4ccc(NC(=O)C(F)(F)F)cc4)cc3)CC2)ccc2c1CCCC2` gave an IC50 of 1 µM. `CN(C)c1ccc(CN2CCC(NC(=O)c3ccc(-c4ccccc4F)s3)CC2)cc1` was tested, and the IC50 was 1.12 µM. `CC(C)COc1ccc(Cl)cc1Cc1nc(-c2nc3c(CN4CCN(C)CC4)cccc3[nH]2)cs1` showed an IC50 of 1.33 µM. With `O=C(Nc1cccc(Cl)c1)OC1CCCN2CCCCC12` (centres undefined) the IC50 was 1.02 µM. Work on `COc1cccc(C(O)CNc2ccnc(Nc3cccc(-c4csc(C)n4)c3)n2)c1` (centres undefined) yielded an IC50 of 0.79 µM. Work on `Cc1ccc(C(=O)NC2CC2)cc1-c1ccc2c(cnn2S(=O)(=O)c2ccc(F)cc2)c1` yielded an IC50 of 0.29 µM. In the case of `Cc1ccc(Cc2c(C)nc3nc(N)nc(N)c3c2C)cc1`, the IC50 is reported as 0.24 µM. Work on `CCOc1cc(C(=O)Nc2ccccc2N2CCN(S(C)(=O)=O)CC2)cc(OCC)c1OCC` yielded an IC50 of 0.65 µM. `Cn1cc(C2CCN(CCCCNC(=O)c3ccc(-c4ccc(C(F)(F)F)cc4)c(CO)c3)CC2)c2ccccc21` showed an IC50 of 1 µM. In the case of `CC1CCC(C(C)C)C(OC(=O)CSc2nnc3c(n2)[nH]c2ccccc23)C1` (centres undefined), the IC50 is reported as 0.93 µM. Molecule `O=c1c2sc(-c3ccc(Cl)cc3)cc2ncn1Cc1ccc(OCCN2CCCC2)c2ccccc12` has an IC50 of 0.25 µM. `COc1nc2c(N3CCN(CCNCc4ccc5c(n4)NC(=O)CO5)CC3)ccnc2cc1F` showed an IC50 of 0.76 µM. In the case of `O=C1COc2ccccc2N1C/C=C(\CN1CCC(c2ccccc2)CC1)c1cc(Cl)cc(Cl)c1`, the IC50 is reported as 0.21 µM. `CC(Sc1n[nH]c(-c2cccs2)n1)C(=O)c1c[nH]c2ccccc12` (centres undefined) showed an IC50 of 1.8 µM. In the case of `CC(=O)Nc1ccc(CN(Cc2ccc(OC(C)(C)C)cc2)Cc2ccc3c(c2)OCCO3)cc1`, the IC50 is reported as 0.93 µM. `FC(F)(F)c1ccc2nc(-c3ccc(-c4ccc(CNCCc5ccncc5)cc4)cc3)[nH]c2c1` was tested, and the IC50 was 0.13 µM. With `COc1cccc(-c2nn(C)c3sc(C(=O)NCCN4CCN(c5ccccc5F)CC4)cc23)c1` the IC50 was 0.95 µM. In the case of `O=C(Nc1cccc(Oc2ccccc2)c1)N[C@H]1CCN(Cc2ccc(OCCCN3CCCCC3)cc2)C1`, the IC50 is reported as 0.72 µM. Molecule `O=[N+]([O-])c1ccccc1C=NNc1ccnc2cc(Cl)ccc12` has an IC50 of 0.88 µM. With `Cc1noc(C)c1-c1ccc2c(Nc3ccccc3C(C)(C)C)c(C(=O)NCc3ccc(OC(C)C)cc3)cnc2c1` the IC50 was 0.91 µM. `C[C@]12CC3CC(Nc4nc(N5CCOCC5)nc5ccccc45)(C1)C[C@@](C)(C3)C2` was tested, and the IC50 was 0.94 µM. Work on `Cn1cnc(CCNC(=O)c2cccc(-c3csc(-c4nc5ccccc5[nH]4)c3)c2)c1` yielded an IC50 of 0.6 µM. `CC(=O)c1cc(N2CCCC2)ccc1N` gave an IC50 of 0.02 µM. With `COc1cc(/C=C/C(=O)NC2CCC(CN3CCC(c4c[nH]c5ccccc45)CC3)CC2)ccc1O` (centres undefined) the IC50 was 0.81 µM and 0.79 µM. Work on `Cc1ccc(Oc2cnn(C)c(=O)c2Nc2cccc(C(=O)NCCc3ccccn3)c2)c(C)c1` yielded an IC50 of 0.49 µM. `Cc1ccc(Nc2nccc(NCC(O)c3ccc(C(F)(F)F)cc3)n2)cc1` (centres undefined) was tested, and the IC50 was 0.49 µM. With `CCOc1ccc(C2CCN(CCCCNC(=O)c3ccc(NC(=O)c4ccc(Cl)cc4)cc3)CC2)c(OCC)c1` the IC50 was 0.68 µM. Molecule `CN(CCCCN)Cc1ccc(-c2ccc(Cl)cc2)cc1` has an IC50 of 0.88 µM. Molecule `N#Cc1ccc(C(=O)Nc2cc(-c3cccc(O)c3)cc3[nH]ncc23)cc1` has an IC50 of 1.37 µM. For `O=C1c2ccccc2CCC1CCN1CC=C(c2c[nH]c3ccccc23)CC1` (centres undefined), the IC50 was 0.7 µM. `O=C(Nc1ccc(Oc2cccnc2)cc1)C1CCN(Cc2cc(Cl)ccc2O)CC1` was tested, and the IC50 was 1.35 µM. Work on `CN1CCN(CC(=O)Nc2cccc(-c3ccc(-c4nc5ccc(F)cc5[nH]4)s3)c2)CC1` yielded an IC50 of 0.68 µM. With `Clc1cccc(CNc2nc(NCCc3cnc[nH]3)nc(NC3CCCCC3)n2)c1` the IC50 was 0.79 µM. Work on `CN(C)CCNCc1ccc(-c2ccc3c(Nc4ccc(Cl)cc4F)ccnc3c2)o1` yielded an IC50 of 0.21 µM. `Cc1nnsc1C(=O)Nc1ccc(-c2ccc(-c3nc4ccccc4[nH]3)s2)cc1` was tested, and the IC50 was 0.82 µM. `CCN(CCO)CCCC(C)Nc1ccnc2cc(Cl)ccc12` (centres undefined) was tested, and the IC50 was 0.76 µM. Work on `CC(C)(C)OC(=O)/C=C(\C(=O)OCc1ccc([N+](=O)[O-])cc1)c1csc(NC(c2ccccc2)(c2ccccc2)c2ccccc2)n1` yielded an IC50 of 0.86 µM. `COCCCNC(=O)C1CCN(C(c2ccc(Cl)cc2)c2ccc(Cl)cc2)CC1` was tested, and the IC50 was 0.92 µM. With `CS(=O)(=O)CCNc1cc(N2CCc3ncnc(Nc4ccc(OCc5cccc(F)c5)c(Cl)c4)c3C2)ncn1` the IC50 was 0.87 µM. `Cc1nnc2c(NC(=O)NC3CCCC3)cc3cc(-c4ccc(CN5CCCCC5)cc4)ccc3n12` was tested, and the IC50 was 0.95 µM. `COc1ccc(C[C@@H](C)NC[C@H](O)c2cccc(Cl)c2)cc1F` gave an IC50 of 0.87 µM. `CCNc1cc(C)nc(Nc2ccc(NS(=O)(=O)c3ccccc3)cc2)n1` was tested, and the IC50 was 0.79 µM. Molecule `CC1CCN(Cc2ccc(NC(=O)c3cc4ccc5cccnc5c4[nH]3)cc2)CC1` has an IC50 of 0.78 µM. `COc1cc2c(cc1C(F)(F)F)N(C(=O)Nc1cc(Br)cc(-c3cccnc3)c1)CC2` showed an IC50 of 0.86 µM. `CCOc1ccc(C(C)NC(=O)C2COc3ccccc3O2)cc1OCC` (centres undefined) gave an IC50 of 0.9 µM. Molecule `Cc1c(C(=O)N[C@@H](C)c2ccccc2)c2cc(O)c(Br)cc2n1C1CCCCC1` has an IC50 of 0.84 µM. With `CCCOc1ccc2ccccc2c1CNCCCCCCNCc1c(OCCC)ccc2ccccc12` the IC50 was 0.79 µM. Molecule `CCC(C)c1ccc(NC(=O)Nc2ccnc3ccccc23)cc1` (centres undefined) has an IC50 of 0.63 µM. For `O=C(NCCCN1CCOCC1)c1csc(Nc2ccc(Cl)c(Cl)c2)n1`, the IC50 was 0.92 µM. `O=C(Nc1cc(F)c(F)c(-c2cccnc2)c1)N1CCc2cc(Cl)c(Cl)cc21` gave an IC50 of 0.84 µM. For `C=CCOC(=O)N1CCC(CNCc2cccc(-c3ccc(-c4nc5ccc(C(F)(F)F)cc5[nH]4)cc3)c2)C1` (centres undefined), the IC50 was 0.15 µM. Work on `COc1ccc(Nc2nc(C)cc(NCc3ccc(-c4c(C)noc4C)cc3)n2)cc1` yielded an IC50 of 0.84 µM. For `COc1cc(CCNc2nc(NCc3cccc4ccccc34)nc(N3CCC(N)CC3)n2)ccc1O`, the IC50 was 0.79 µM. In the case of `CN(C)Cc1ccc(O)c(-c2ccc(C(C)(C)C)cc2)n1`, the IC50 is reported as 1.08 µM. `COc1ccc(Nc2ncc3c(-c4cccc(NC(=O)Cc5ccc(O)cc5)c4)c[nH]c3n2)cc1OC` showed an IC50 of 0.57 µM. In the case of `CNC(=O)C1Cc2c([nH]c3ccc(Cl)cc23)C2(CCN(CCc3ccccc3)CC2)N1` (centres undefined), the IC50 is reported as 0.89 µM. With `Cc1cccc2[nH]c(-c3cccc(-c4cccc(NC(=O)Nc5ccc(Cl)cc5)c4)c3)nc12` the IC50 was 0.24 µM. For `CCc1ccc(NC(=O)N(CCCn2ccnc2)Cc2csc(-c3ccc(CNCc4ccccc4)cc3)n2)cc1`, the IC50 was 0.76 µM. `O=c1cc(-c2cccc(C(F)(F)F)c2)nc(Nc2ccc(Cl)c(Cl)c2)[nH]1` gave an IC50 of 0.76 µM. Work on `CC(C)CC1c2[nH]c3ccccc3c2CCN1C(=O)CCc1ccccc1` (centres undefined) yielded an IC50 of 0.97 µM. In the case of `COC(=O)c1cc(/C(C)=N/Nc2nc3ccccc3[nH]2)ccc1O`, the IC50 is reported as 0.68 µM. For `N#Cc1ccc(-c2ccc(C(=O)NC3CCN(CCN4CCC(c5cn(CCOC6CCCCO6)c6ccccc56)CC4)CC3)cc2)cc1` (centres undefined), the IC50 was 0.6 µM. `C[C@H](O)[C@@](C)(CO)NCc1ccc2c3c(cccc13)-c1ccccc1-2` was tested, and the IC50 was 0.82 µM. Molecule `CCOC(=O)c1ccc(NC(=O)N[C@H]2CCN(CCCCCNC(=O)/C=C/c3ccc(Cl)c(Cl)c3)C2)cc1` has an IC50 of 0.74 µM. With `COc1ccc(-c2cccc(NC(=O)c3ccc(C#N)cc3)c2)cc1CN1CCN(C)CC1` the IC50 was 0.99 µM. Work on `Cc1cccc2[nH]c(-c3ccc(-c4ccc(C(=O)NCCc5cn(C)cn5)cc4)s3)nc12` yielded an IC50 of 0.96 µM. With `COc1ccc2ncc(F)c([C@H](O)CN3CCC(NCc4ccc5c(c4)NC(=O)CS5)CC3)c2c1` the IC50 was 0.19 µM. `O=C(Nc1ccc(Cl)cc1)Nc1ccc(-c2cccc(-c3nc4ccccc4[nH]3)c2)cc1` gave an IC50 of 0.16 µM. With `CN(C)CCOc1cc(NC(=O)Nc2cccc3c(-c4ccncc4)cccc23)ccc1I` the IC50 was 0.73 µM. In the case of `NC(N)=NCCN(Cc1ccccc1)c1ccccc1`, the IC50 is reported as 0.35 µM. Molecule `COc1ccc2nccc(C(=O)NC3CCC(CCN4CCc5cc(C#N)ccc5C4)CC3)c2c1` (centres undefined) has an IC50 of 1.16 µM. For `CN(c1ccc(C(=O)N[C@@H](CCC(=O)O)C(=O)O)cc1)S(=O)(=O)c1ccc2nc(N)[nH]c(=O)c2c1`, the IC50 was 0.15 µM. `CCc1ccc(-c2cnc(N)c3cc(-c4ccnc(N)n4)ccc23)cc1` gave an IC50 of 1.35 µM. `Fc1ccc2c(NN=CC=Cc3ccccc3)ccnc2c1` showed an IC50 of 0.78 µM. For `CC(C)(C)C(C)(C)Cc1ccc(O)c(CN2CCN(c3ccccc3)CC2)c1`, the IC50 was 0.6 µM. `OCC1CCN(Cc2cccc(-c3ccc(-c4nc5ccc(F)cc5[nH]4)cc3)c2)CC1` was tested, and the IC50 was 0.72 µM. `CN1CCN(c2ccc(-c3cc(-c4cc(F)c(F)c(F)c4)cnc3N)cc2)CC1` showed an IC50 of 1.01 µM. `O=C(/C=C/c1cc(F)c(F)cc1F)N1CCC(CN2CCC(c3c[nH]c4ccccc34)CC2)CC1` showed an IC50 of 1 µM. Work on `CC(=O)Nc1ccc(Nc2cc(C)nc(Nc3ccc(NC(C)=O)cc3)n2)cc1` yielded an IC50 of 0.89 µM. In the case of `O=C(Nc1ccc(Cl)cc1)N[C@H]1CCN(Cc2ccc(OCCCN3CCCCC3)cc2)C1`, the IC50 is reported as 0.67 µM. With `COc1cc(Br)ccc1N1CCN(CCCCNC(=O)c2ccc(NC(=O)c3ccc(Cl)cc3)cc2)CC1` the IC50 was 0.76 µM.

From PubChem BioAssay AID2305 (GlaxoSmithKline (GSK), 2010)
